Reference: EP4700018A1, “NAV1.8 INHIBITORS, PREPARATION METHOD THEREFOR AND USE THEREOF” (Shanghai Institute of Materia Medica, Chinese Academy of …, priority 2023, dated 2024)
Each block holds one compound with its values, some of them ahead of it.

Key:
[1] = target: human Nav1.8 sodium channel (Homo sapiens, UniProt Q9Y5Y9); assay: Blocking activity on sodium channel 1.8 (Nav1.8), whole-cell manual patch clamp; type: cell-based; settings: for inhibition at 0.001 µM: read-out: inhibition Percent @1 nM, 1 nM compound; for inhibition Percent @1 nM: 1 nM compound, 0.001 µM; for inhibition at 0.03 µM: read-out: inhibition Percent @30 nM, 30 nM compound; for inhibition at 0.01 µM: read-out: inhibition Percent @10 nM, 10 nM compound
human Nav1.8 sodium channel, sequence (Q9Y5Y9 whole entry): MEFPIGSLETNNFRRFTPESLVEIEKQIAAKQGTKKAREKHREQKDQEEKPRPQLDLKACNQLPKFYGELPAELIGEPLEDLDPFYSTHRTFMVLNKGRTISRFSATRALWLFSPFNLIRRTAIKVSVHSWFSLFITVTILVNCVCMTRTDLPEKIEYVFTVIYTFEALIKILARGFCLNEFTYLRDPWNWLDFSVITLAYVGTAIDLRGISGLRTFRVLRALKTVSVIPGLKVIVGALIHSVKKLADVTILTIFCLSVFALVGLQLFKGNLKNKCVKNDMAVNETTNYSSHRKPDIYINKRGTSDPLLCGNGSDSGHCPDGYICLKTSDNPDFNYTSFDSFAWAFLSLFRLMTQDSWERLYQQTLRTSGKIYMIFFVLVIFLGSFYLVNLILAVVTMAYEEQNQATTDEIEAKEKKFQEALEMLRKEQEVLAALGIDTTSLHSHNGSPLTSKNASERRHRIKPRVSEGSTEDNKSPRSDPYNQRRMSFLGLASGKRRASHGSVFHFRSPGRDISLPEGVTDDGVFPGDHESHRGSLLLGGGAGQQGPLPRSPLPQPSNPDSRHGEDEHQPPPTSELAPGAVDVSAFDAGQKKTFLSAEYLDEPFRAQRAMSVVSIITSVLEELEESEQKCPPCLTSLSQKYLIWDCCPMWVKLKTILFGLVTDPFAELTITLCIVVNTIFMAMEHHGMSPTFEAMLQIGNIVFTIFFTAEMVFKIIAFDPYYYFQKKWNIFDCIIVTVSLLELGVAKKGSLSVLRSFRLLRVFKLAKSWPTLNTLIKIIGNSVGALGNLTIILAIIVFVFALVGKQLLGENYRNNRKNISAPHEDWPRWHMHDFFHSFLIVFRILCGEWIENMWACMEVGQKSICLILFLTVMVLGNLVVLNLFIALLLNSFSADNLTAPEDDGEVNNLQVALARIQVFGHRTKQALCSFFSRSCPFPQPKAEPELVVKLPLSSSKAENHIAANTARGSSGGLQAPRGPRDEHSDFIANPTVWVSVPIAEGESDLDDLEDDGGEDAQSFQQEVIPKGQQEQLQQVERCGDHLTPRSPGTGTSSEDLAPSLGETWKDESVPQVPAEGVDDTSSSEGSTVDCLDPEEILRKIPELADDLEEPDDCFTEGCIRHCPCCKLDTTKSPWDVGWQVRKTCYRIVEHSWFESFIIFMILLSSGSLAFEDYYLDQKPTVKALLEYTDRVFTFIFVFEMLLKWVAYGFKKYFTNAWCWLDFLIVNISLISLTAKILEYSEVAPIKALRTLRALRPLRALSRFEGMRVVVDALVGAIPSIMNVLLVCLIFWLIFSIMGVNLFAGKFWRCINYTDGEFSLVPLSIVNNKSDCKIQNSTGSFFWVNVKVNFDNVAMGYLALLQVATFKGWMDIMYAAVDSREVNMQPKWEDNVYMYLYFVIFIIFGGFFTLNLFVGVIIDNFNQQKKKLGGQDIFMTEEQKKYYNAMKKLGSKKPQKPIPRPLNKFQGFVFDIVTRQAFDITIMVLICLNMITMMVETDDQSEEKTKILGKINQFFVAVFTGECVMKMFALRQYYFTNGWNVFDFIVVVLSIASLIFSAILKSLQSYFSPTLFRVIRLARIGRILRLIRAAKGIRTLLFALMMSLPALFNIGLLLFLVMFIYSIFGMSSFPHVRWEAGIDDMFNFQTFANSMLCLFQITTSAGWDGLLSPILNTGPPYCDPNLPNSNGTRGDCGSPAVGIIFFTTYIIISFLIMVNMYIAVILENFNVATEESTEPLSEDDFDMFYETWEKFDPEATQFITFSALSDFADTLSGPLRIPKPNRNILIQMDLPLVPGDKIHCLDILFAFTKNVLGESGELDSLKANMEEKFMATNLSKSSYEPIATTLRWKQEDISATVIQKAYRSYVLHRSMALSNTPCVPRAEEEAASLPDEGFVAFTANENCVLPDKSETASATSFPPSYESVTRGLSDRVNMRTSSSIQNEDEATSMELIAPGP

[2] = In vivo pharmacokinetics in rats, single intravenous injection or oral gavage; settings: male, SD, plasma, Rat; for Vd: read-out: Vss
Experimental: The in vivo pharmacokinetics in rats were evaluated via a single intravenous injection or oral gavage administration in this test example. • 1. Test Methods and Conditions: Male SD rats were fasted overnight and administered a single intravenous dose of 2 mg/kg or 1 mg/kg of the test compound (solvent for Intravenous administration was 5% DMSO/10% Solutol® HS 15/10% EtOH/75% saline, with a dosing volume of 5 mL/kg) and an oral gavage dose of 10 mg/kg or 5 mg/kg of the test compound (solvent for administration was 0.5% CMC-Na, with a dosing volume of 10 mL/kg), respectively. • 2. Sampling Information: Blood samples (0.2 mL) were collected from the retroorbital venous plexus at the designated time points: 0.25, 0.5, 1.0, 2.0, 3.0, 4.0, 6.0, 8.0, and 24 hours before and after dosing (a 5 min sampling point was added for the intravenous administration group), respectively. The samples were placed in EDTA-K2 tubes and centrifuged at 11,000 rpm for 5 minutes. Plasma was separated and frozen at -20°C. • 3. Assay Information: LC/MS/MS was used to determine the concentration of the parent drug in rat/mouse plasma following intravenous and oral gavage administration of the test compound. Pharmacokinetic parameters in rat/mouse plasma were calculated for both administration routes, and the bioavailability of each compound in rats was also calculated. Table 5: Intravenous Pharmacokinetic Information of Representative Compounds

[3] = intravenous, single dose 2 mg/kg or 1 mg/kg (figure not given)

Structure (SMILES): CC1CN(c2nc(C(F)(F)F)c(Cl)cc2C(=O)Nc2ccc(F)c(C(N)=NO)c2)CCC1(F)F (single isomer, unassigned) [Compound I-40-P1, 5-chloro-2-(4,4-difluoro-3-methylpiperidin-1-yl)-N-(4-fluoro-3-(N'-hydroxyamidino)phenyl)-6-(trifluoromethyl)nicotinamide]
- inhibition at 0.001 µM [1]: 59%

Structure (SMILES): CC1CN(c2nc(C(F)(F)F)c(Cl)cc2C(=O)Nc2ccc(F)c(C(N)=NO)c2)CCC1(F)F (single isomer, unassigned) [Compound I-40-P2, 5-chloro-2-(4,4-difluoro-3-methylpiperidin-1-yl)-N-(4-fluoro-3-(N'-hydroxyamidino)phenyl)-6-(trifluoromethyl)nicotinamide]
- inhibition Percent @1 nM [1]: 63%

Structure (SMILES): Cc1nc(N2CCC(F)(F)C(C)C2)c(C(=O)Nc2ccc(F)c(C(N)=NO)c2)cc1Cl (single isomer, unassigned) [Compound I-41-P1, 5-chloro-2-(4,4-difluoro-3-methylpiperidin-1-yl)-N-(4-fluoro-3-(N'-hydroxyamidino)phenyl)-6-(methyl)nicotinamide]
- inhibition at 0.001 µM [1]: 38%

Structure (SMILES): Cc1nc(N2CCC(F)(F)C(C)C2)c(C(=O)Nc2ccc(F)c(C(N)=NO)c2)cc1Cl (single isomer, unassigned) [Compound I-41-P2, 5-chloro-2-(4,4-difluoro-3-methylpiperidin-1-yl)-N-(4-fluoro-3-(N'-hydroxyamidino)phenyl)-6-(methyl)nicotinamide]
- inhibition Percent @1 nM [1]: 35%

Structure (SMILES): Cc1nc(N2CCCC(F)(F)CC2)c(C(=O)Nc2ccc(F)c(C(=O)O)c2)cc1Cl [Compound I7-b, 5-(5-chloro-2-(4,4-difluoroazepan-1-yl)-6-methylnicotinamido)-2-fluorobenzoic acid]
- inhibition at 0.03 µM [1]: 33%

Structure (SMILES): Cc1nc(N2CCCC(F)(F)CC2)c(C(=O)Nc2ccc(F)c(C(=N)N)c2)cc1Cl [Compound I-2, N-(3-amidino-4-fluorophenyl)-5-chloro-2-(4,4-difluoroazepan-1-yl)-6-methylnicotinamide]
- inhibition at 0.001 µM [1]: 79%

- AUC(0-t) [2, 3]: 567 ng·h/mL
- clearance [2, 3]: 29.7 mL/min/kg
- half-life [2, 3]: 0.325 h
- Vd [2, 3]: 0.442 L/kg
- AUC(0-t) ([2]; oral gavage, 5mg/kg): 1770 ng·h/mL
- Cmax ([2]; oral gavage, 5mg/kg): 381 ng/mL
- Tmax ([2]; oral gavage, 5mg/kg): 6 h
- half-life ([2]; oral gavage, 5mg/kg): 2.08 h
- bioavailability ([2]; oral gavage, 5mg/kg): 62.4%
Structure (SMILES): Cc1nc(N2CCCC(F)(F)CC2)c(C(=O)Nc2ccc(F)c(C(N)=NC#N)c2)cc1Cl [Compound I-3, 5-chloro-N-(3-(N'-cyanoamidino)-4-fluorophenyl)-2-(4,4-difluoroazepan-1-yl)-6-meth ylnicotinamide]

Structure (SMILES): Cc1nc(N2CCCC(F)(F)CC2)c(C(=O)Nc2ccc(Cl)c(C(N)=NO)c2)cc1Cl [Compound I-5, 5-chloro-2-(4,4-difluoroazepan-1-yl)-N-(4-chloro-3-(N'-hydroxyamidino)phenyl)-6-me thylnicotinamide]
- inhibition at 0.001 µM [1]: 82%

Structure (SMILES): Cc1nc(N2CCCC(F)(F)CC2)c(C(=O)Nc2ccc(Cl)c(C(=N)N)c2)cc1Cl [Compound I-6, N-(3-amidino-4-chlorophenyl)-5-chloro-2-(4,4-difluoroazepan-1-yl)-6-methylnicotinamide]
- inhibition at 0.001 µM [1]: 65%

Structure (SMILES): Cc1ccc(NC(=O)c2cc(Cl)c(C)nc2N2CCCC(F)(F)CC2)cc1C(N)=NO [Compound I-7, 5-chloro-2-(4,4-difluoroazepan-1-yl)-N-(3-(N'-hydroxyamidino)-4-methylphenyl)-6-me thylnicotinamide]
- inhibition at 0.01 µM [1]: 83%

Structure (SMILES): Cc1ccc(NC(=O)c2cc(Cl)c(C)nc2N2CCCC(F)(F)CC2)cc1C(=N)N [Compound I-8, N-(3-amidino-4-methylphenyl)-5-chloro-2-(4,4-difluoroazepan-1-yl)-6-methylnicotinamide]
- inhibition at 0.001 µM [1]: 51%

Structure (SMILES): COc1ccc(NC(=O)c2cc(Cl)c(C)nc2N2CCCC(F)(F)CC2)cc1C(=N)N [Compound I-10, N-(3-amidino-4-methoxyphenyl)-5-chloro-2-(4,4-difluoroazepan-1-yl)-6-methylnicoti namide]
- inhibition at 0.001 µM [1]: 32%

Structure (SMILES): Cc1nc(N2CCCC(F)(F)CC2)c(C(=O)Nc2cccc(C(N)=NO)c2)cc1Cl [Compound I-11, 5-chloro-2-(4,4-difluoroazepan-1-yl)-N-(3-(N'-hydroxyamidino)phenyl)-6-methylnicoti namide]
- inhibition at 0.001 µM [1]: 90%

Structure (SMILES): Cc1nc(N2CCCC(F)(F)CC2)c(C(=O)Nc2cccc(C(=N)N)c2)cc1Cl [Compound I-12, N-(3-amidinophenyl)-5-chloro-2-(4,4-difluoroazepan-1-yl)-6-methylnicotinamide]
- IC50 ([1]; Nav1.8 channel current, HEK293 cells stably expressing human Nav1.8, clamped at -60 mV, mean ± SEM, read-out: IC50): 0.26 ± 0.06 nM
- inhibition at 0.001 µM [1]: 73%

Structure (SMILES): Cc1nc(N2CCCC(F)(F)CC2)c(C(=O)Nc2ccc(C(N)=NO)cc2)cc1Cl [Compound I-13, 5-chloro-2-(4,4-difluoroazepan-1-yl)-N-(4-(N'-hydroxyamidino)phenyl)-6-methylnicoti namide]
- inhibition at 0.001 µM [1]: 85%

Structure (SMILES): Cc1nc(N2CCCC(F)(F)CC2)c(C(=O)Nc2ccnc(C(N)=NO)c2)cc1Cl [Compound I-15, 5-chloro-2-(4,4-difluoroazepan-1-yl)-N-(2-(N'-hydroxyamidinoimino)pyridin-4-yl)-6-m ethylnicotinamide]
- inhibition at 0.001 µM [1]: 66%

Structure (SMILES): Cc1nc(N2CCCC(F)(F)CC2)c(C(=O)Nc2ccc(F)c(C(=O)NC(=N)N)c2)cc1Cl [Compound I-17, N-(3-(amidinocarbamoyl)-4-fluorophenyl)-5-chloro-2-(4,4-difluoroazepan-1-yl)-6-met hylnicotinamide]
- inhibition at 0.03 µM [1]: 99%

Structure (SMILES): Cc1nc(N2CCCC(F)(F)CC2)c(C(=O)Nc2cccc(C(=O)NC(=N)N)c2)cc1Cl [Compound I-18, N-(3-(amidinocarbamoyl)phenyl)-5-chloro-2-(4,4-difluoroazepan-1-yl)-6-methylnicoti namide]
- inhibition at 0.03 µM [1]: 90%

Structure (SMILES): Cc1nc(N2CCCC(F)(F)CC2)c(C(=O)Nc2ccc(F)c(NC(=N)N)c2)cc1Cl [Compound I-19, 5-chloro-2-(4,4-difluoroazepan-1-yl)-N-(4-fluoro-3-guanidinophenyl)-6-methylnicotin amide]
- inhibition at 0.001 µM [1]: 49%

Structure (SMILES): Cc1nc(N2CCCCCC2)c(C(=O)Nc2cccc(C(=N)N)c2)cc1Cl [Compound I-23, 2-(azepan-1-yl)-N-(3-amidinophenyl)-5-chloro-6-methylnicotinamide]
- inhibition at 0.03 µM [1]: 95%

Structure (SMILES): C#Cc1cc(C(=O)Nc2ccc(F)c(C(N)=NO)c2)c(N2CCCC(F)(F)CC2)nc1C [Compound I-26, 2-(4,4-difluoroazepan-1-yl)-5-ethynyl-N-(4-fluoro-3-(N'-hydroxyamidino)phenyl)-6-m ethylnicotinamide]
- inhibition at 0.01 µM [1]: 76%

Structure (SMILES): Cc1nc(N2CCCC(F)(F)CC2)c(C(=O)Nc2ccc(F)c(C(N)=NO)c2)cc1C(F)(F)F [Compound I-27, 2-(4,4-difluoroazepan-1-yl)-N-(4-fluoro-3-(N'-hydroxyamidino)phenyl)-6-methyl-5-(trifluoromethyl)nicotinamide]
- inhibition at 0.01 µM [1]: 83%

Structure (SMILES): Cc1ccc(C(=O)Nc2ccc(F)c(C(N)=NO)c2)c(N2CCCC(F)(F)CC2)n1 [Compound I-29, 2-(4,4-difluoroazepan-1-yl)-N-(4-fluoro-3-(N'-hydroxyamidino)phenyl)-6-methylnicoti namide]
- inhibition at 0.01 µM [1]: 57%

Structure (SMILES): O=C(Nc1ccc2c(c1)S(=O)(=O)NC2)c1c(N2CCCC(F)(F)CC2)ccc(C(F)(F)F)c1Cl [Compound I-31, 2-chloro-6-(4,4-difluoroazepan-1-yl)-N-(1,1-dioxo-2,3-dihydrobenzisothiazol-6-yl)-3-tr ifluoromethylbenzamide]
- inhibition at 0.001 µM [1]: 46%

Structure (SMILES): NC(=NO)c1cc(NC(=O)c2c(N3CCCC(F)(F)CC3)ccc(C(F)(F)F)c2Cl)ccc1F [Compound I-32, 2-chloro-6-(4,4-difluoroazepan-1-yl)-N-(4-fluoro-3-(N'-hydroxyamidino)phenyl)-3-(trifluoromethyl)benzamide]
- inhibition at 0.001 µM [1]: 50%

Structure (SMILES): N#CN=C(N)c1cc(NC(=O)c2cc(Cl)c(C(F)(F)F)nc2N2CCCC(F)(F)CC2)ccc1F [Compound I-37, 5-chloro-N-(3-(N'-cyanoamidino)-4-fluorophenyl)-2-(4,4-difluoroazepan-1-yl)-6-triflu oromethylnicotinamide]
- inhibition at 0.01 µM [1]: 62%

Structure (SMILES): NC(=NO)c1cc(NC(=O)c2cc(Cl)c(C(F)F)nc2N2CCCC(F)(F)CC2)ccc1F [Compound I-38, 5-chloro-2-(4,4-difluoroazepan-1-yl)-6-(difluoromethyl)-N-(4-fluoro-3-(N'-hydroxyamidino)phenyl)nicotinamide]
- inhibition at 0.001 µM [1]: 33%

- AUC(0-t) [2, 3]: 2510 ng·h/mL
- clearance [2, 3]: 13.9 mL/min/kg
- half-life [2, 3]: 1.08 h
- Vd [2, 3]: 1.09 L/kg
- AUC(0-t) ([2]; oral gavage, 10mg/kg): 3810 ng·h/mL
- Cmax ([2]; oral gavage, 10mg/kg): 723 ng/mL
- Tmax ([2]; oral gavage, 10mg/kg): 2 h
- half-life ([2]; oral gavage, 10mg/kg): 2.88 h
- bioavailability ([2]; oral gavage, 10mg/kg): 30.4%
Structure (SMILES): Cc1cc(F)ccc1Oc1cc(C(F)(F)F)ccc1C(=O)Nc1cc[nH]c(=O)c1 [VX-150, reference compound]
